Data taken from article PMC9783227, “New Derivatives of the Multi-Stage Active Malaria Box Compound MMV030666 and Their Antiplasmodial Potencies” (Pharmaceuticals, 2022).
Where two headings read alike, the source gives them in different places.

What was measured:
[1] = Parallel artificial membrane permeability assay (PAMPA); conditions: for Papp at 5 h, 200 µM: pH 7.4, Pe
Method: The parallel artificial membrane permeability assay (PAMPA) is a fast and easy high-throughput assay to determine passive permeability of compounds through semi-permeable membranes (for example the blood-brain-barrier) without the influence of efflux pumps or transporter molecules.
With the high-throughput PAMPA the newly synthesized compounds were tested for their passive permeability through cell membranes without the influence of efflux pumps or transporter proteins. The assay was performed using a Corning® Gentest^TM Pre-coated PAMPA Plate System with 96-well polystyrene plates. The bottom of the acceptor plate consists of a porous membrane, whereby the pores are lined with a lipid-oil-lipid triple layer. Stock solutions of each test compound at 10 mM were prepared in DMSO or methanol and diluted with phosphate-buffered saline (PBS at a pH of 7.4) to a final concentration of 200 µM. […] The donor plate (bottom plate) was filled with the compound solutions, whereby all compounds were tested in quadruplicates. Each well of the acceptor plate (top plate) was filled with PBS buffer. Donor and acceptor plates were combined and incubated at room temperature for 5 h. After that, the plates were separated and 150 µL of each well of both plates were transferred to 96-well UV plates (Greiner Bio-One). Absorption at different wavelengths covering a range from 200 to 300 nm was measured using a SpectraMax M3 UV plate reader. […] The plates were analyzed at the wavelength where the R^2 value of the calibration curve was higher than 0.99 [41]. […] (2) cequ=[cD(t)∗VD+cA(t)∗VA]/(VD+VA) where: • VD—donor well volume (0.3 mL); • VA—acceptor well volume (0.2 mL); • cA(t)—acceptor well compound concentration at time t; • cD(t)—donor well compound concentration at time t.
Recovery of compounds from donor and acceptor wells (mass retention) was calculated as shown in the equation below. Data were only accepted when recovery exceeded 70%. (3) R=1−[cD(t)∗VD+cA(t)∗VA]/(c0∗VD) where: • R—mass retention (%); • VD—donor well volume (0.3 mL); • VA—acceptor well volume (0.2 mL); • cA(t)—acceptor well compound concentration at time t; • cD(t)—donor well compound concentration at time t; • c0—initial donor well compound concentration (200 µM).

in vitro = conditions: rat
Method: (§1) All newly prepared compounds were tested for their in vitro activity against the chloroquine sensitive strain NF54 of P. falciparum. Cytotoxicity was determined using L-6 cells (rat skeletal myofibroblasts). Chloroquine and podophyllotoxin were used as standards.
The cytotoxicity assays were performed using 96-well microtiter plates, each well containing 4000 L-6 cells (a primary cell line derived from rat skeletal myofibroblasts, ATCC CRL-1458^TM) in 0.1 mL of RPMI 1640 medium supplemented with 1% glutamine (200 mM) and 10% fetal bovine serum. Serial drug dilutions of eleven 3-fold dilution steps covering a range from 100 to 0.002 µg/mL were prepared. After 70 h of incubation, the plates were inspected under an inverted microscope to assure growth of the controls and sterile conditions. Then, 0.01 mL resazurin solution (resazurin, 12.5 mg in 100 mL double-distilled water) was added to each well and the plates were incubated for another 2 h. The plates were read with a Spectramax Gemini XS microplate fluorometer (Molecular Devices Cooperation, Sunnyvale, CA, USA) using an excitation wavelength of 536 nm and an emission wavelength of 588 nm. IC50 values were calculated by linear regression from the sigmoidal dose inhibition curves using SoftmaxPro software (Molecular Devices Cooperation, Sunnyvale, CA, USA). Podophyllotoxin (Sigma P4405) was used as control.

P. falciparum NF54 = test: In vitro microplate assay against P. falciparum NF54 (3H-hypoxanthine incorporation); assay type: cell-based, Plasmodium falciparum; conditions: for IC50: average of four determinations, read-out: PfNF54 IC50; for S.I. = IC50 (Cyt.)/IC50 (PfNF54): L-6 cells IC50 / PfNF54 IC50
Method: as §1
The in vitro activity of compounds against erythrocytic stages of the drug sensitive NF54 strain of P. falciparum […] was determined using a ^3H-hypoxanthine incorporation assay. Compounds were dissolved in DMSO at 10 mg/mL and further diluted in medium before adding to parasite cultures that were incubated in RPMI 1640 medium without hypoxanthine, supplemented with HEPES (5.94 g/L), NaHCO3 (2.1 g/L), neomycin (100 U/mL), AlbumaxR (5 g/L) and washed human red blood cells A+ at 2.5% haematocrit (0.3% parasitaemia). Serial drug dilutions of eleven 3-fold dilutions steps covering a range from 100 to 0.002 µg/mL were prepared. The 96-well plates were incubated in a humidified atmosphere at 37 °C; 4% CO2, 3% O2, 93% N2. After 48 h of incubation time, 0.05 mL of ^3H-hypoxanthine (=0.5 µCi) was added to each well of the plate. The plates were incubated for further 24 h under the same conditions. Plates were then harvested using a Betaplate^TM cell harvester (Wallac, Zurich, Switzerland). Red blood cells were transferred onto a glass fiber filter and then washed with distilled water. The dried filters were inserted into a plastic foil with 10 mL of scintillation fluid and counted in a Betaplate^TM liquid scintillation counter (Wallac, Zurich, Switzerland). IC50 values were calculated from sigmoidal inhibition curves by linear regression using Microsoft Excel. Chloroquine (Sigma C6628) was used as control.

[2] = PAMPA, PBS pH 7.4, 200 µM, 5 h, room temperature
[3] = Plasmodium falciparum, NF54, chloroquine sensitive strain NF54, erythrocytic stages
[4] = chloroquine sensitive strain NF54, erythrocytic stages

Pe [1, 2] | IC50 at 72 h (in vitro) [µM] | Papp at 5 h, 200 µM [1, 2] [×10⁻⁶ cm/s] | IC50 (P. falciparum NF54; [3]) [µM] | S.I. = IC50 (Cyt.)/IC50 (PfNF54) (P. falciparum NF54) | IC50 (P. falciparum NF54; [4]) [µM] | Compound | Pe ([1]; PAMPA standards) [nm/s]
 | 158 | 0.62 | 3.08 |  |  | CC(C)(C)OC(=O)N1CCN(c2ccc(NC(=O)c3cccc(N)c3Oc3ccc(F)cc3)cc2)CC1 [Compound 47, tert-Butyl 4-{4-[3-amino-2-(4-fluorophenoxy)benzamido]phenyl}piperazine-1-carboxylate] | 
 | 109 | 5.13 | 1.79 |  |  | CC(C)(C)C(=O)N1CCN(c2ccc(NC(=O)c3cccc(F)c3Oc3ccc(F)cc3)cc2)CC1 [Compound 45, N-{4-[4-(2,2-Dimethylpropanoyl)piperazin-1-yl]phenyl}-3-fluoro-2-(4-fluorophenoxy)benzamid] | 
 | 98.3 | 5.57 | 3.09 | 31.78 |  | CC(C)(C)OC(=O)N1CCN(c2ccc(NC(=O)c3ccccc3Oc3ccccc3)cc2)CC1 [Compound 40, tert-Butyl 4-[4-(2-phenoxybenzamido)phenyl]piperazin-1-carboxylate] | 
 | 114 | 6.92 | 2.61 |  |  | CC(C)(C)C(=O)N1CCN(c2ccccc2NC(=O)c2cccc([N+](=O)[O-])c2Oc2ccc(F)cc2)CC1 [Compound 34, N-{2-[4-(2,2-Dimethylpropanoyl)piperazin-1-yl]phenyl}-2-(4-fluorophenoxy)-3-nitrobenzamid] | 
 | 35.3 | 0.7 | 4.07 |  |  | CC(C)(C)OC(=O)N1CCN(c2ccc(NC(=O)c3cccc(F)c3Oc3ccc(F)cc3)cc2)CC1 [Compound 37, tert-Butyl 4-{4-[3-fluoro-2-(4-fluorophenoxy)benzamido]phenyl}piperazine-1-carb-oxylate] | 
 | 22.5 | 8.52 | 1.13 | 19.87 |  | CC(C)(C)OC(=O)N1CCN(c2ccccc2NC(=O)c2ccccc2Oc2ccccc2)CC1 [Compound 30, tert-Butyl 4-[2-(2-phenoxybenzamido)phenyl]piperazin-1-carboxylate] | 
 | 203 | 2.84 | 3.4 |  |  | CC(C)(C)OC(=O)N1CCN(c2ccc(NC(=O)c3ccccc3Oc3ccc(F)cc3)cc2)CC1 [Compound 36, tert-Butyl 4-{4-[2-(4-fluorophenoxy)benzamido]phenyl}piperazine-1-carboxylate] | 
 | 94.2 | 0.2 | 0.539 to 0.634 |  | 0.539 | CC(C)(C)OC(=O)N1CCN(c2ccc(NC(=O)c3cccc(C(F)(F)F)c3Nc3ccc(F)cc3)cc2)CC1 [Compound 42] | 
 |  |  |  | 9672 |  | CCN(CC)CCCC(C)Nc1ccnc2cc(Cl)ccc12 (stereo not drawn) [CQ, chloroquine, reference compound] | 
 | 70.8 | 1.53 | 1.43 |  |  | CC(C)(C)OC(=O)N1CCN(c2ccc(NC(=O)c3cccc([N+](=O)[O-])c3Oc3ccc(F)cc3)cc2)CC1 [Compound 38, tert-Butyl 4-{4-[2-(4-fluorophenoxy)-3-nitrobenzamido]phenyl}piperazine-1-carb-oxylate] | 
4.31 10^−6 cm/s | 31.8 | 3.77 | 0.149 | 212.8 |  | CC(C)(C)OC(=O)N1CCN(c2ccc(NC(=O)c3cccc(C(F)(F)F)c3Sc3ccc(F)cc3)cc2)CC1 [Compound 39, tert-Butyl 4-(4-{2-[(4-fluorophenyl)sulfanyl]-3-(trifluoromethyl)benzamido}phenyl) piperazine-1-carboxylate] | 
 | 90.4 | 1.68 | 0.591 |  |  | CC(C)(C)OC(=O)N1CCN(c2ccccc2NC(=O)c2cccc([N+](=O)[O-])c2Oc2ccc(F)cc2)CC1 [Compound 28, tert-Butyl 4-{2-[2-(4-fluorophenoxy)-3-nitrobenzamido]phenyl}piperazine-1-carboxylate] | 
 | 184 | 0.02 | 5.62 |  |  | CC(C)(C)C(=O)N1CCN(c2ccc(NC(=O)c3ccccc3Oc3ccc(F)cc3)cc2)CC1 [Compound 43, N-{4-[4-(2,2-Dimethylpropanoyl)piperazin-1-yl]phenyl}-2-(4-fluorophenoxy)benzamid] | 
 | 123 | 0.57 | 0.614 to 0.636 |  | 0.636 | CC(C)(C)OC(=O)N1CCN(c2ccccc2NC(=O)c2cccc(C(F)(F)F)c2Nc2ccc(F)cc2)CC1 [Compound 32, tert-Butyl 4-{2-[2-(4-fluoroanilino)-3-(trifluoromethyl)benzamido]phenyl}piperazin-1-carboxylate] | 
 |  |  |  |  |  | NS(=O)(=O)c1cc2c(cc1Cl)NCNS2(=O)=O [Hydrochlorothiazide, reference compound] | 0.9
 | 127 | 1.44 | 1.01 | 126.0 |  | CC(C)(C)OC(=O)N1CCN(c2ccccc2NC(=O)c2cccc(N)c2Oc2ccc(F)cc2)CC1 [Compound 46, tert-Butyl 4-{2-[3-amino-2-(4-fluorophenoxy)benzamido]phenyl}piperazine-1-carboxylate] | 
3.77 10^−6 cm/s | 166 | 4.31 | 0.195 | 850.5 |  | CC(C)(C)OC(=O)N1CCN(c2ccccc2NC(=O)c2cccc(C(F)(F)F)c2Sc2ccc(F)cc2)CC1 [Compound 29, tert-Butyl 4-(2-{2-[(4-fluorophenyl)sulfanyl]-3-(trifluoromethyl)benz-amido}phenyl) piperazine-1-carboxylate] | 
 | 33.8 | 1.32 | 0.539 to 0.634 |  | 0.634 | CC(C)(C)OC(=O)N1CCN(c2ccc(NC(=O)c3cccc(C(F)(F)F)c3Nc3ccccc3)cc2)CC1 [Compound 41, tert-Butyl 4-{4-[2-anilino-3-(trifluoromethyl)benzamido]phenyl}piperazin-1-carboxylate] | 
 | 129 | 0.65 | 0.614 to 0.636 |  | 0.614 | CC(C)(C)OC(=O)N1CCN(c2ccccc2NC(=O)c2cccc(C(F)(F)F)c2Nc2ccccc2)CC1 [Compound 31, tert-Butyl 4-{2-[2-anilino-3-(trifluoromethyl)benzamido]phenyl}piperazin-1-carboxylate] | 

Compound | Pe [1, 2] | IC50 at 72 h (in vitro) [µM] | Papp at 5 h, 200 µM [1, 2] [×10⁻⁶ cm/s] | IC50 (P. falciparum NF54; [3]) [µM] | S.I. = IC50 (Cyt.)/IC50 (PfNF54) (P. falciparum NF54) | IC50 (P. falciparum NF54; [4]) [µM] | Pe ([1]; PAMPA standards) [nm/s]
Cn1c(=O)c2c(ncn2C)n(C)c1=O [Caffeine, reference compound] | 8.00 10^−6 cm/s |  |  |  |  |  | 80
